No end group written: not given here.

The record followed here is patent US9340577B2, “HLA binding motifs and peptides and their uses” (priority 1992, dated 2016).

Targets include HLA-A1 (A*0101) (Homo sapiens, UniProt P04439, A114D/A174V/A182V/D101N/D185E/E176A/E190D/L180R/Q94H/R68K/S129P/T187R/V100A/V91M/W191G); A*2601 (Homo sapiens, UniProt P04439, A114D/A173T/A270S/D101N/D185E/E277Q/E87N/F33Y/G231S/I121R/I218V/K168Q/L180W/L300P/L318F/P208A/P217A/Q86R/Q94H/R138Q/S129P/T187R/T323A/T345S/V100A/V358M); A*2902 (Homo sapiens, UniProt P04439, A270S/D101N/D185E/E176V/E277Q/E87Q/F33T/G231S/H175R/I121M/I218V/I322F/K168Q/L300P/L318F/M331R/P208A/P217A/Q86L/T323A/T345S/V100A/V358M); A*3002 (Homo sapiens, UniProt P04439, D101N/D140H/D185E/E176R/F33S/G80R/H175R/K168Q/Q94H/R138E/R41S/V100E).

Common to all, as to test: biochemical
What all share (format): binding

Sequence of A*3002 (P04439 whole entry, looked up, the tested form may be a part, stated change not applied): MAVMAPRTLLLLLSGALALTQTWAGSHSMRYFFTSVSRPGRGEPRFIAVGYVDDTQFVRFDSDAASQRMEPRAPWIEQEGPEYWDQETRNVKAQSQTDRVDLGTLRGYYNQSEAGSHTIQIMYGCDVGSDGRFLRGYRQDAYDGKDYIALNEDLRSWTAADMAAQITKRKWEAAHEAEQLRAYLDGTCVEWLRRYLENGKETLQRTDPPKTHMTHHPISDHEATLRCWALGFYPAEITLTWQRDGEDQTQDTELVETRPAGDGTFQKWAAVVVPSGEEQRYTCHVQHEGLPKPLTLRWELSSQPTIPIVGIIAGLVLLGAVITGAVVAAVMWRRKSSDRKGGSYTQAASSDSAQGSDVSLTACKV

A word on the IC50: it is the point on the concentration scale where inhibition reaches its midpoint. Higher therefore signals weaker potency in that assay. Turning to `CC[C@H](C)[C@H](N)C(=O)N[C@H](C(=O)N[C@@H](CCC(=O)O)C(=O)N[C@@H](CCCCN)C(=O)N[C@@H](CC(N)=O)C(=O)N[C@@H](CO)C(=O)NCC(=O)N[C@@H](CC(C)C)C(=O)N[C@@H](Cc1ccc(O)cc1)C(=O)O)[C@@H](C)O` [Peptide 1553.04], the IC50 was 58 nM on HLA-A1 (A*0101), 513 nM at A*2601, greater than 20000 nM at A*2902 and 68 nM against A*3002.
In the case of `CC[C@H](C)[C@H](N)C(=O)N[C@@H](CO)C(=O)N[C@@H](CCC(=O)O)C(=O)N[C@@H](Cc1ccc(O)cc1)C(=O)N[C@@H](CCCNC(=N)N)C(=O)N[C@@H](Cc1c[nH]cn1)C(=O)N[C@@H](Cc1ccc(O)cc1)C(=O)N[C@@H](CS)C(=O)N[C@@H](Cc1ccc(O)cc1)C(=O)O` [Peptide 1571.27], the IC50 at HLA-A1 (A*0101) is 38 nM; against A*2601, greater than 20000 nM; against A*2902, 264 nM; against A*3002, 62 nM.
Regarding ASDVTACPYNY [Peptide 9012.0176], the IC50 at HLA-A1 (A*0101) came to 18 nM; at A*2601 it was 5830 nM; on A*2902, 2440 nM; against A*3002 it was 205 nM.
As for ATDVSHRGLY [Peptide 1593.10], the IC50 on HLA-A1 (A*0101) turned out to be 26 nM; at A*2601, 18 nM; against A*2902, 1620 nM; against A*3002, 15 nM.
Consider ATTDLTIVY [Peptide 1549.51], for which the IC50 against A*2601 was determined as 163 nM; on A*3002 it was 109 nM.
Regarding CQDKILTHY [Peptide 86.0141], the IC50 against HLA-A1 (A*0101) is 914 nM; at A*2601, 8900 nM; against A*3002, 188 nM.
As for CTSASNPSPQY [Peptide 9012.0170], the IC50 at HLA-A1 (A*0101) was 535 nM; at A*2601, 549 nM; against A*2902, greater than 20000 nM; on A*3002, 484 nM.
In the case of DSDQILVGY [Peptide 1593.12], the IC50 against A*2601, on A*2902 and against A*3002 was greater than 20000 nM in each case.
For DSVSSTCRY [Peptide 86.0156], the IC50 is 3060 nM against HLA-A1 (A*0101), 12 nM against A*2601, greater than 20000 nM on A*2902 and 994 nM at A*3002.
Taken in the same sequence, the figures for ETDLDMLRHLY [Peptide 9012.0172] were 9.6 nM, 4.4 nM, 1500 nM and 10 nM.
In the case of EVDYVGLYY [Peptide 1580.33], the IC50 on HLA-A1 (A*0101) was 3.6 nM; against A*2601, 161 nM; at A*2902 it was 4.5 nM; against A*3002, greater than 20000 nM.
Take FTSMPNPEGRY [Peptide 9012.0174]: the IC50 against HLA-A1 (A*0101) came out at 10 nM; on A*2601 it was 2.8 nM; at A*2902, 170 nM; against A*3002 it was 104 nM.
In the case of GTDQATPGPAY [Peptide 9012.0160], the IC50 against A*2601 came out at 3850 nM; against A*3002, 234 nM.
On to HTASNPPAQY [Peptide 9012.0142], for which the IC50 turned out to be 0.54 nM against A*2601, 21 nM at A*2902 and 1.8 nM at A*3002.
As for ISDSYTYY [Peptide 9012.0102], the IC50 came out at 8550 nM against A*2601, 1990 nM at A*2902 and 9110 nM on A*3002.
For ITDNNNGTY [Peptide 9012.0120], the concentration for half-maximal inhibition (IC50) on HLA-A1 (A*0101) is 32 nM; at A*2601 it was 460 nM; against A*2902, 15600 nM; on A*3002, 21 nM.
Turning to ITSPPDSSY [Peptide 9012.0118], the IC50 at HLA-A1 (A*0101) worked out at 1720 nM; against A*2601, 462 nM; against A*2902 it was 16500 nM; on A*3002, 8.8 nM.
With KSAIVTLTY [Peptide 1580.20], the IC50 at HLA-A1 (A*0101) was 9.2 nM; against A*2601, greater than 20000 nM; on A*3002 it was 5.7 nM.
For the molecule KTDILTVTY [Peptide 1593.11], the half-inhibitory concentration (IC50) on A*2601 is greater than 20000 nM; at A*2902, greater than 20000 nM; on A*3002, 922 nM.
For KTGILTVTY [Peptide 86.0146], the IC50 on HLA-A1 (A*0101) is 855 nM; against A*2601, greater than 20000 nM; on A*2902, 3390 nM; against A*3002, 20 nM.
For LQDKIIDHY [Peptide 1580.21], the concentration for half-maximal inhibition (IC50) is greater than 20000 nM against A*2601, greater than 20000 nM at A*2902 and 2770 nM on A*3002.
Take LQDKILDHY [Peptide 1580.27]: the IC50 was 66 nM at HLA-A1 (A*0101), 7410 nM on A*2601, greater than 20000 nM on A*2902 and 926 nM on A*3002.
As for LSDALEIPY [Peptide 1549.41], the 50% inhibitory concentration (IC50) against HLA-A1 (A*0101) was determined as 12 nM; against A*2601, 629 nM; against A*2902 it was 1600 nM; on A*3002 it was 8690 nM.
Consider LSDTRNDVGPY [Peptide 9012.0164], for which the IC50 was determined as 14 nM against HLA-A1 (A*0101), 586 nM against A*2601, 9860 nM on A*2902 and 152 nM against A*3002.
For LSSALEIPY [Peptide 1549.01], the IC50 against HLA-A1 (A*0101) is 25 nM; against A*2601, 4110 nM; against A*3002, 83 nM.
LTDKIIDHY [Peptide 1593.09]: the results for the IC50 against A*2601, against A*2902 and at A*3002 were greater than 20000 nM, greater than 20000 nM and 6800 nM, respectively.
LTQRNPQLCY [Peptide 9012.0151]: the IC50 against HLA-A1 (A*0101) came to 6.9 nM; against A*2601, 21 nM; at A*3002, 7.1 nM.
In the same order, the values of LTSALEIPY [Peptide 1549.40] are 57 nM, 358 nM and 161 nM.
On to MTETLNNTEY [Peptide 1593.15], for which the half-maximal inhibitory concentration (IC50) on HLA-A1 (A*0101) was determined as 77 nM; against A*2601, 1620 nM; against A*2902 it was 471 nM.
As for NTGILTVTY [Peptide 86.0152], the IC50 against A*2601 was determined as 3150 nM; against A*2902, 1400 nM; on A*3002 it was 8720 nM.
As for QAEPDTSNY [Peptide 1549.03], the IC50 on HLA-A1 (A*0101) was 319 nM; against A*2601 it was greater than 20000 nM; at A*2902, greater than 20000 nM; against A*3002, 9930 nM.
Take QVDYYGLYY [Peptide 1580.19]: the IC50 was 3.4 nM on HLA-A1 (A*0101), 777 nM against A*2601, 69 nM at A*2902 and 1150 nM at A*3002.
Taken in the same sequence, the figures for RTDGNRQIIGY [Peptide 9012.0158] were 140 nM, greater than 20000 nM, greater than 20000 nM and 95 nM.
As for RTDPVTLDVLY [Peptide 9012.0168], the half-inhibitory concentration (IC50) against HLA-A1 (A*0101) came to 6.7 nM; at A*2601, 2520 nM; against A*2902, 1310 nM; against A*3002, 10 nM.
RTTQLFEDNY [Peptide 9012.0149]: the IC50 at HLA-A1 (A*0101) was 2390 nM; on A*2601 it was greater than 20000 nM; against A*2902, 11200 nM; against A*3002 it was 7.4 nM.
With SMDNPEGRY [Peptide 9012.0122], the IC50 on HLA-A1 (A*0101) turned out to be 141 nM; on A*2601 it was 535 nM; against A*2902, 1440 nM; against A*3002, 11 nM.
Take STDLRDHIDY [Peptide 1580.18]: the half-inhibitory concentration (IC50) on HLA-A1 (A*0101) is 25 nM; against A*2601 it was 9580 nM; against A*2902, greater than 20000 nM.
As to TIEKLTNTGLY [Peptide 1589.45], the IC50 against HLA-A1 (A*0101) was 78 nM; against A*2601 it was 12 nM; against A*2902 it was 15100 nM; at A*3002, 220 nM.
TSDYYIVTY [Peptide 1549.48]: the IC50 was 11 nM against HLA-A1 (A*0101), 4110 nM against A*2601, 11900 nM on A*2902 and 2200 nM against A*3002.
TTEPEAQNTTY [Peptide 9012.0166]: the figures for the IC50 against HLA-A1 (A*0101), on A*2601 and against A*2902 were 2.1 nM, 530 nM and 1330 nM, respectively.
Take TTSPLNTSY [Peptide 9012.0116]: the IC50 worked out at 2.6 nM on A*2601 and 12 nM against A*3002.
As for TTSPSYTY [Peptide 9012.0100], the IC50 at A*2601 came out at 3440 nM; at A*2902 it was 213 nM; at A*3002, 323 nM.
Consider VFADLRIVY [Peptide 1549.09], for which the half-maximal inhibitory concentration (IC50) at HLA-A1 (A*0101) is greater than 20000 nM; against A*2601, 1800 nM; at A*2902, 2.9 nM; on A*3002, 21 nM.
For VQDKILDIY [Peptide 1580.32], the values for the IC50 on A*2601, against A*2902 and against A*3002 were greater than 20000 nM, greater than 20000 nM and 3810 nM, respectively.
Regarding VQEKILDLY [Peptide 86.0149], the IC50 amounted to 1440 nM at HLA-A1 (A*0101), 8180 nM against A*2601, 17000 nM against A*2902 and 193 nM at A*3002.
In the same order, the values of VSDFRWYRY [Peptide 1549.43] are 24 nM, 3070 nM, 241 nM and 99 nM.
Turning to VSEFRWYRY [Peptide 1549.02], the IC50 at HLA-A1 (A*0101) is 33 nM; against A*2601, greater than 20000 nM; on A*2902, 1520 nM.
For VTADLRIVY [Peptide 1549.50], the IC50 against HLA-A1 (A*0101) was 1520 nM; on A*2601 it was 121 nM; at A*2902, 228 nM; against A*3002, 50 nM.
As to VTDSRNTKY [Peptide 1580.30], the IC50 against HLA-A1 (A*0101) is 25 nM; against A*2601, greater than 20000 nM; on A*2902 it was greater than 20000 nM.
As to VTQGNLELTY [Peptide 9012.0147], the IC50 was found to be 90 nM against HLA-A1 (A*0101), 6720 nM on A*2601 and 23 nM at A*3002.
